Source: ChEMBL document CHEMBL5244275, “Geminal Diheteroatomic Motifs: Some Applications of Acetals, Ketals, and Their Sulfur and Nitrogen Homologues in Medicinal Chemistry and Drug Design” (J Med Chem, 2021)
Converted amounts (≈) assume the structure as drawn.

Tests used:
[1] = Antiplasmodial activity against Plasmodium berghei NK 173 infected in ICR (CD-1) mouse assessed as inhibition of parasite growth administered intraperitoneally for four days; settings: NK 173, 96 h
[2] = Stability of the compound at pH 2 assessed as half-life; assay type: physicochemical; settings: buffer
[3] = Drug concentration in rat plasma at 10 mg/kg, po measured after 90 mins; assay type: ADME, organism-based
Mus musculus [4] = test: Anticonvulsant activity in MES induced mouse model of seizure at 75 mg/kg, po measured after 4 hrs relative to control; assay type: functional
[5] = biological target: Sodium-dependent dopamine transporter (Homo sapiens, UniProt Q01959); test: Inhibition of dopamine transporter (unknown origin)
Chain of Sodium-dependent dopamine transporter (Q01959 whole entry): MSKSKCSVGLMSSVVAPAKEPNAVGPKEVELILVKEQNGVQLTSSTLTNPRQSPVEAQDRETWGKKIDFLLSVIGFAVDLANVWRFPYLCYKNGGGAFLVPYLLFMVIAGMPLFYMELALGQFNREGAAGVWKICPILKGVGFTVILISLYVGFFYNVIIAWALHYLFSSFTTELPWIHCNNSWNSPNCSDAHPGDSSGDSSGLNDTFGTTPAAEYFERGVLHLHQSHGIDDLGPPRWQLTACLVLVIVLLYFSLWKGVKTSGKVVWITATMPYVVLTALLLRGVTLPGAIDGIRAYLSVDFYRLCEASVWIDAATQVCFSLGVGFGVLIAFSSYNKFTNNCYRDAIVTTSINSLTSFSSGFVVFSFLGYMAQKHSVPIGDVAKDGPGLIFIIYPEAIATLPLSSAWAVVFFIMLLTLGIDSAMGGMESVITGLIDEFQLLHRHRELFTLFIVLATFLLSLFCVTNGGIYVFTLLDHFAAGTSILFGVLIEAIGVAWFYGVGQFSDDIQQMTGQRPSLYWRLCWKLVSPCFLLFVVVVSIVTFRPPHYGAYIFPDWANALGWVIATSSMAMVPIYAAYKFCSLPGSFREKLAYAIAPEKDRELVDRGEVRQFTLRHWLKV

[6] = biological target: Sodium-dependent serotonin transporter (Homo sapiens, UniProt P31645); test: Inhibition of SERT (unknown origin)
Chain of Sodium-dependent serotonin transporter (P31645 whole entry): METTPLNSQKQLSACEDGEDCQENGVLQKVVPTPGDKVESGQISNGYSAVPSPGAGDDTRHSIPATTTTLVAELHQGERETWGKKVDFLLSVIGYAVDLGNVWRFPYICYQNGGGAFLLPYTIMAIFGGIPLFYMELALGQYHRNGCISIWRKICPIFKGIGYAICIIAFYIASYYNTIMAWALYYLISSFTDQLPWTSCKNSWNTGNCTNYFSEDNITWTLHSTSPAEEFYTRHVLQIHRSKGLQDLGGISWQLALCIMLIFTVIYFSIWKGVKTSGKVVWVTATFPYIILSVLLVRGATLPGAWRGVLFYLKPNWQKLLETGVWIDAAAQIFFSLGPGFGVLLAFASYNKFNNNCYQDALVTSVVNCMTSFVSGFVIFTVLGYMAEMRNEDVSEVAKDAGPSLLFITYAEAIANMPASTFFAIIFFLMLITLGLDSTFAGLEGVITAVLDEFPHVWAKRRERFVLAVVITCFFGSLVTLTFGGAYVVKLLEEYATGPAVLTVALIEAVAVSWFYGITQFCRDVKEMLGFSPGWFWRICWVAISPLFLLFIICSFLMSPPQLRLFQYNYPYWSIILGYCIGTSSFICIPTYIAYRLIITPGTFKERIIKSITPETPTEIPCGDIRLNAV

MAP kinase p38 = MAP kinase p38 (Homo sapiens, UniProt O15264+Q15759+Q16539+P53778); test: Inhibition of p38-MAPK (unknown origin); assay type: protein assay
Mus musculus [7] = test: Antiinflammatory activity in LPS-induced Balb/c mouse model assessed as reduction in TNF-alpha release administered orally for 30 mins followed by LPS-stimulation and measured after 90 mins by ELISA analysis; assay type: functional; settings: 2 h, route po, time 120 min
[8] = Oral bioavailability in rat; assay type: ADME, organism-based; settings: in vivo
[9] = Stability of the compound at pH 7.4 aqueous phosphate buffer assessed as half-life; assay type: physicochemical
[10] = Antiplatelet activity in human platelet rich plasma assessed as platelet aggregation; assay type: functional, cell-free
Mus musculus [11] = test: Anticonvulsant activity in MES induced mouse model of seizure at 10 mg/kg, po measured after 4 hrs relative to control; assay type: functional
[12] = Half-life in human plasma; assay type: ADME
[13] = Oral bioavailability in human; assay type: ADME, organism-based; settings: in vivo
[14] = Drug excretion in human urine assessed as unchanged drug excreted; assay type: ADME; settings: read-out: Drug excretion
[15] = Half-life in po dosed rat; assay type: ADME, organism-based; settings: in vivo
[16] = Dissociation constant, pKa of the compound; assay type: physicochemical
[17] = Drug degradation in citrate buffer at pH 8.5 measured after 18 hrs; assay type: physicochemical; settings: read-out: Drug degradation
[18] = Drug degradation in citrate buffer at pH 4 measured after 18 hrs; assay type: physicochemical; settings: read-out: Drug degradation
Substance-P receptor = Substance-P receptor (Homo sapiens, UniProt P25103); test: Displacement of [125I]-labeled SP from human NK-1 receptor expressed in CHO cells at 1 uM relative to control; assay type: cell-based; settings: filed as antagonist
Chain of Substance-P receptor (P25103 whole entry): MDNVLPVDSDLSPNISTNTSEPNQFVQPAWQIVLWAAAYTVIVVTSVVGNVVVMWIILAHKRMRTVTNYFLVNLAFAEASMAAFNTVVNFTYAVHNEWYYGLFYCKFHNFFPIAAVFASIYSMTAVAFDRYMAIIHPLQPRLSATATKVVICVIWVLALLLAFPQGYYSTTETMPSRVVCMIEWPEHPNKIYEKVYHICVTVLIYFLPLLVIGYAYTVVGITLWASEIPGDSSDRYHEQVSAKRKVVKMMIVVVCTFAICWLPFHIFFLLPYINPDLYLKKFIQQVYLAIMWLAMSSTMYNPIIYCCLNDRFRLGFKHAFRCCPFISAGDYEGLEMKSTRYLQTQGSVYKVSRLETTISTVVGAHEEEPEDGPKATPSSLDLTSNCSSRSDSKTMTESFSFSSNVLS

Mus musculus [19] = test: Ex vivo inhibition of FAAH in po dosed mouse brain assessed as drug concentration required to inhibit [3H]ethanolamine degradation; assay type: functional; settings: read-out: ID50 (the source's name)
Mus musculus [20] = test: Ex vivo inhibition of FAAH in ip dosed mouse brain assessed as drug concentration required to inhibit [3H]ethanolamine degradation; assay type: functional; settings: read-out: ID50 (the source's name)
[21] = biological target: Polymerase acidic protein (Influenza A virus (A/Puerto Rico/8/1934(H1N1)), UniProt P03433); test: Inhibition of Influenza A virus CEN
Candida albicans [22] = test: Antifungal activity against Candida albicans GS; assay type: functional, organism-based
[23] = Clearance in Chimpanzee at 0.5 mg/kg administered as iv infusion; assay type: ADME, organism-based, Pan troglodytes; settings: in vivo
Candida albicans [24] = test: Fungicidal activity against Candida albicans; assay type: functional
[25] = Clearance in Chimpanzee at 0.5 mg/kg, iv bolus injection; assay type: ADME, organism-based, Pan troglodytes; settings: in vivo
[26] = system: Human immunodeficiency virus 1; test: Selectivity index, ratio of EC50 for antiviral activity against HIV-1 G140S/Q148R mutant to EC50 for antiviral activity against wild-type HIV-1; assay type: functional
[27] = Unbound fraction in human plasma; assay type: ADME, cell-free
PXR (NR1I2) = PXR (NR1I2) (Homo sapiens, UniProt O75469); test: Activation of PXR (unknown origin) in human DPX2 cells assessed as maximal efficacy at 15 uM relative to control; assay type: cell-based
Chain of PXR (NR1I2) (O75469 whole entry): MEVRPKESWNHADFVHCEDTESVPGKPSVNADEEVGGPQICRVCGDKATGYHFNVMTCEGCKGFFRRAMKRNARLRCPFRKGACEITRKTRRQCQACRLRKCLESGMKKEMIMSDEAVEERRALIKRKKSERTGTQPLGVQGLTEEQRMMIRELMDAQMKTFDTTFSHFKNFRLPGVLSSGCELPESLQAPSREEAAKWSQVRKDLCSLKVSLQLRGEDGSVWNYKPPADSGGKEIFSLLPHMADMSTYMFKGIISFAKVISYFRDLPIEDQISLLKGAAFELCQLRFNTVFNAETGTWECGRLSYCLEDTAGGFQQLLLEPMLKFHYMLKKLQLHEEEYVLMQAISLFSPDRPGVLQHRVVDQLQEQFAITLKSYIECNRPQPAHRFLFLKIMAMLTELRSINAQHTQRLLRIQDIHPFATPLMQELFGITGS

[28] = Bioavailability in rat at 0.5 mg/kg, iv measured after 30 mins by LC-MS/MS analysis; assay type: ADME, organism-based; settings: in vivo
[29] = system: Human immunodeficiency virus 1; test: Antiviral activity against HIV1 infected in human MT4 cells assessed as inhibition of viral replication; assay type: functional, organism-based; settings: Human immunodeficiency virus 1, MT4
[30] = Bioavailability in dog at 1 mg/kg, iv measured after 30 mins by LC-MS/MS analysis; assay type: ADME, organism-based, Canis lupus familiaris; settings: in vivo
[31] = Solubility of the compound at pH 7 incubated for 12 hrs by UPLC analysis; assay type: physicochemical; settings: buffer, pH 7, 12 h
[32] = Half-life in human; assay type: ADME
[33] = Stability of the compound assessed as compound hydrolysis by measuring rate constant; assay type: physicochemical
[34] = Solubility of the compound at pH 7.4; assay type: physicochemical; settings: buffer
[35] = Drug recovery in mouse urine; assay type: ADME; settings: pooled result: one value given for 8 cell lines, strains, targets or settings, read-out: Drug recovery
[36] = Inhibition of Calcium channel (unknown origin); parameters: species or system Homo sapiens
Cavia porcellus = test: Antiinflammatory activity in po dosed substance P-induced guinea pig model of dermal inflammation; assay type: functional; settings: read-out: ID50 (the source's name)

## CO[C@@]1(C(F)(F)F)O[C@@H]2O[C@@]3(C)CC[C@H]4[C@H](C)CC[C@@H]([C@H]1C)[C@@]24OO3
[1]
  ED50: 3.4 µmol/kg
[2]
  half-life: 660 h

## c1ccc(-c2nc([C@H]3OC[C@@H](CCCCN4CCSCC4)CO3)[nH]c2-c2ccccc2)cc1
[3]
  concentration at 1.5 h: 2200 nM

## CC1(C)O[C@H]2[C@H](O)[C@H](O)CO[C@@]2(COS(N)(=O)=O)O1
Mus musculus [4]
  Activity: 40%

## COC(=O)[C@H]1[C@@H](c2ccc(Cl)c(Cl)c2)C[C@@H]2CC[C@H]1N2C
[5]
  IC50: 1.1 nM
[6]
  IC50: 2 nM

## C[C@]1(NC(=O)N2CCOCC2)CO[C@H](c2nc(-c3ccncc3)c(-c3ccc(F)cc3)[nH]2)OC1
MAP kinase p38
  IC50: 50 nM
Mus musculus [7]
  ED50: < 10 mg/kg
[8]
  bioavailability: 50%

## CCCCC[C@H](O)/C=C/[C@H]1O[C@@H]2O[C@H]([C@@H]1C/C=C\CCCC(=O)O)C2(F)F
[9]
  half-life: 322 days
[10]
  EC50: 36 nM

## CC1(C)O[C@@H]2[C@@H](CO[C@@]3(COS(N)(=O)=O)OC(C)(C)O[C@@H]23)O1 [TOPIRAMATE]
Mus musculus [11]
  Activity: 80%
[12]
  half-life: 21 h
[13]
  bioavailability: 80%
[14]
  dose excreted: 70%

## CC(C)(N)CNC(=O)CC1CCC2(CC1)OOC1(O2)C2CC3CC(C2)CC1C3 (configuration not stated)
[15]
  half-life: 1 h
[8]
  bioavailability: 35%

## Cc1cc(C)n(CCC[C@H]2CO[C@@H](c3nc(-c4ccccc4)c(-c4ccccc4)[nH]3)OC2)n1
[3]
  concentration at 1.5 h: 1300 nM

## CC(=O)NC[C@H]1CN(c2ccc(N3CCOCC3)c(F)c2)C(=O)O1 [LINEZOLID]
[16]
  pKa: < 6
[17]
  degraded at 18 h: 40%
[18]
  degraded at 18 h: < 1%

## Fc1ccc([C@@H]2NCCO[C@]23CC[C@@H](c2ccccc2C(F)(F)F)CO3)cc1
Substance-P receptor
  Activity: 47%

## COc1ccc2c(cccc2[C@H]2CO[C@H](CCCNC(=O)OCC(N)=O)OC2)c1
Mus musculus [19]
  ED50: 0.17 mg/kg
Mus musculus [20]
  ED50: 0.1 mg/kg

## COC(=O)[C@H]1[C@@H](c2ccc(Cl)c(Cl)c2)C[C@@H]2CC[C@H]1O2
[5]
  IC50: 3.27 nM
[6]
  IC50: 4.67 nM

## COC(=O)OCOc1c2n(ccc1=O)N([C@@H]1c3ccccc3SCc3c1ccc(F)c3F)[C@@H]1COCCN1C2=O [BALOXAVIR MARBOXIL]
[21]
  IC50: 530 nM

## CC[C@H](C)C[C@H](C)CCCCCCCCC(=O)N[C@H]1C[C@@H](O)[C@@H](NCCN)NC(=O)[C@@H]2[C@@H](O)CCN2C(=O)[C@H]([C@H](O)CCN)NC(=O)[C@H]([C@H](O)[C@@H](O)c2ccc(O)cc2)NC(=O)[C@@H]2C[C@@H](O)CN2C(=O)[C@H]([C@@H](C)O)NC1=O [CASPOFUNGIN]
Candida albicans [22]
  IC50: 0.6 nM
[23]
  clearance: 0.21 mL/min/kg
Candida albicans [24]
  MFC: 0.125 µg/mL (≈ 0.114 µM)
[25]
  clearance: 0.26 mL/min/kg

## O=C(NCc1c(F)cc(F)cc1F)c1cn2c(c(O)c1=O)C(=O)N1[C@H]3CC[C@H](C3)O[C@@H]1C2 [BICTEGRAVIR]
[26]
  Ratio EC50: 2
[27]
  Fu: 0.3%
PXR (NR1I2)
  Emax at 15 µM: 18%
[28]
  bioavailability: 50%
[29]
  EC50: 1.9 nM
[30]
  bioavailability: 28%
[31]
  solubility: 119 µg/mL (≈ 265 µM)
[32]
  half-life: 19 h

## Fc1ccc([C@@H]2NCCO[C@@]23CC[C@H](c2ccccc2C(F)(F)F)CO3)cc1
Substance-P receptor
  Activity: 44%

## FC1(F)[C@H]2O[C@@H]1[C@H](COCc1ccccc1)[C@@H](COCc1ccccc1)O2
[9]
  half-life: > 30 days
[33]
  K: 2.4 10^-3/M/s

## Nc1nc(O)c2ncn(COC(CO)CO)c2n1 [GANCICLOVIR]
[34]
  solubility: 2000 µg/mL (≈ 7840 µM)

## CC1(C)O[C@@H]2[C@@H](CC[C@@]3(COS(N)(=O)=O)OC(C)(C)O[C@@H]23)O1
[35]
  dose excreted: 89%

## O=c1[nH]nc(CN2CCC[C@H](OCc3cc(C(F)(F)F)cc(C(F)(F)F)c3)[C@@H]2c2ccccc2)[nH]1
[16]
  pKa: 5.3
[36]
  IC50: 13000 nM
Cavia porcellus
  ED50: 0.037 mg/kg
